Here are results for six molecules from patent US20070219348A1, “Mutations in the mineralocorticoid receptor ligand binding domain polypeptide that permit structural determination of low affinity ligand complexes and screening methods employing same” (priority 2006, published 2007).

Changes are numbered by the printed parent chain. Read-outs that look alike come from different tables or passages of the source.

The target of series [1] is T1, MR S810L (Homo sapiens, UniProt P08235, S810L).
T1 sequence (P08235 1-984 S810L): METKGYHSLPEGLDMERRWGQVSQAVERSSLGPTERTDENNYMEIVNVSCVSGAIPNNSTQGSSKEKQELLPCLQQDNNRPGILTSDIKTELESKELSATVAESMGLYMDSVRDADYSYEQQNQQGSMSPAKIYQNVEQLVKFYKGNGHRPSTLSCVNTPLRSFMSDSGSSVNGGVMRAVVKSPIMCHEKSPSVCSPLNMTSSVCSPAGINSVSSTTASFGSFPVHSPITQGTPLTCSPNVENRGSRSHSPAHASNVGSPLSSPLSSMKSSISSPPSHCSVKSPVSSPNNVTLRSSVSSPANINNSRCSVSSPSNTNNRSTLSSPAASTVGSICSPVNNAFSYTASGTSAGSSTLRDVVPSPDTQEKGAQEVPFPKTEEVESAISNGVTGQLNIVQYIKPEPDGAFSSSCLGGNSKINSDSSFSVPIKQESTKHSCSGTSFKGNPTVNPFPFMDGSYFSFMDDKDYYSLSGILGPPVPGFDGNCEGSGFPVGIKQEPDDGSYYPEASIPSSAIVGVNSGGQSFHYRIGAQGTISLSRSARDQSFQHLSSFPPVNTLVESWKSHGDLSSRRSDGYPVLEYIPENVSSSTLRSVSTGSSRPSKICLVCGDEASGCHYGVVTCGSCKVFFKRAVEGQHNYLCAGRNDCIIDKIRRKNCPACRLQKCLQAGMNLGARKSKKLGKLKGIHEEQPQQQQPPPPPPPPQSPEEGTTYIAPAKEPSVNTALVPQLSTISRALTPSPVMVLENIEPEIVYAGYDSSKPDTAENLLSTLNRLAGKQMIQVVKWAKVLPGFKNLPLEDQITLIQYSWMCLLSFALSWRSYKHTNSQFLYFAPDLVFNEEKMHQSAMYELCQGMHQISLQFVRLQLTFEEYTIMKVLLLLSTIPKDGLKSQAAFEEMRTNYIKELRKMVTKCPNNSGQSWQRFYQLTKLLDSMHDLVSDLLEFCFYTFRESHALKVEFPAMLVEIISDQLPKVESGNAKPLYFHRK
Nature of the series: Ligand binding affinities on MR constructs (Table 1), MR S810L. Conditions: read-out: IC50 binding affinity, MR S810L. As to the method:
(§1) As used herein, the terms “weakly binding ligand” and “weak ligand” are used interchangeably and mean a ligand that binds a receptor with low affinity. The binding strength of a ligand to a receptor can be experimentally measured using any of several procedures, as is generally known in the art. In some embodiments of the presently disclosed subject matter, ligand binding is measured using a competitive binding assay in which a ligand of interest competes with a labeled ligand for binding to a receptor. […] This quantitative measurement can be expressed as an IC50 value. Therefore, the greater the IC50 value of a ligand, the lower the binding affinity the ligand has for the receptor.
(§2) Cortisol has a hydroxyl attached to C11, where cortisone has a ketone.

Series [2] deals with T2, Wild type MR (Homo sapiens, UniProt P08235).
T2 sequence (P08235 1-984): T1 sequence (P08235 1-984 S810L) with L810S
Nature of the series: Ligand binding affinities on MR constructs (Table 1), wild type MR. As to the method: as §1, §2

Series [3] addresses T3, MR (Homo sapiens, UniProt P08235).
T3 sequence (P08235 1-984): T1 sequence (P08235 1-984 S810L) with L810S
Conditions: Quinkler & Stewart, 2003; cited from earlier work.

Series [4] addresses Reporter Alone. Nature of the series: Ligand binding affinities on MR constructs (Table 1), Reporter Alone. Particulars: read-out: IC50 binding affinity, Reporter Alone. As to the method:
as §1, §2

Series [5] concerns the molecule itself. Nature of the series: X-ray crystal structure of native MR LBD with deoxycorticosterone (crystal contact).

Turning to `C[C@]12CCC(=O)C=C1CC[C@@H]1[C@@H]2C(=O)C[C@@]2(C)[C@H]1CC[C@]2(O)C(=O)CO` [Cortisone, cortisone], the IC50 (usually the concentration that inhibits the measured activity by half) was 20 nM in series [1]; more than 10 µM in series [2] (Wild type MR, in uM, read-out: IC50 binding affinity, Wild type MR); more than 10 µM in series [2] (wild-type MR, read-out: IC50 binding affinity, wild-type MR); more than 10 µM in series [4] (in uM). In series [2] (wild type MR, transactivation assays), the “fold difference in IC50s between cortisone and cortisol” value is recorded as more than 700 fold. In series [3], the “binding affinity for MR in words” value is given as “micromolar binder”.

On to `CC(=O)[C@H]1CC[C@H]2[C@@H]3CCC4=CC(=O)CC[C@]4(C)[C@H]3CC[C@]12C` [Progesterone, progesterone], for which, in series [4] (in uM), the 50% inhibitory concentration (IC50) was more than 10 µM.

On to `CC(=O)S[C@@H]1CC2=CC(=O)CC[C@]2(C)[C@H]2CC[C@@]3(C)[C@@H](CC[C@@]34CCC(=O)O4)[C@H]12` [Spironolactone, spironolactone], for which the IC50 in series [4] (cells printed in nM) came to 0.0036 µM.

In the case of `C[C@]12CCC(=O)C=C1CC[C@@H]1[C@@H]2[C@@H](O)C[C@@]2(C)[C@H]1CC[C@]2(O)C(=O)CO` [Cortisol, cortisol], the IC50 in series [1] is 20 nM; in series [2] (Wild type MR, cells printed in nM, read-out: IC50 binding affinity, Wild type MR), 0.021 µM; in series [4] (cells printed in nM), 0.785 µM. The “binding affinity for MR in words” value in series [3] is listed as “low nM binder”.

Regarding `C[C@]12CCC(=O)C=C1CC[C@@H]1[C@@H]2[C@@H](O)C[C@]2(C=O)[C@@H](C(=O)CO)CC[C@@H]12` [Aldosterone, aldosterone], the IC50 in series [4] (in uM) is more than 10 µM.

B1: Native (wild type) MR LBD (amino acids 712-984) (receptor)
chain: APAKEPSVNTALVPQLSTISRALTPSPVMVLENIEPEIVYAGYDSSKPDTAENLLSTLNRLAGKQMIQVVKWAKVLPGFKNLPLEDQITLIQYSWMCLSSFALSWRSYKHTNSQFLYFAPDLVFNEEKMHQSAMYELCQGMHQISLQFVRLQLTFEEYTIMKVLLLLSTIPKDGLKSQAAFEEMRTNYIKELRKMVTKCPNNSGQSWQRFYQLTKLLDSMHDLVSDLLEFCFYTFRESHALKVEFPAMLVEIISDQLPKVESGNAKPLYFHRK
notes: Crystallized with deoxycorticosterone; the final model holds residues 727-908 and 914-984; also called native MR; WT MR
Turning to B1, in series [5], the binding result was “binds”.
